Source: US20210060030A1, “METHOD FOR TREATING CANCER” (Epizyme, Inc., priority 2014, published 2021)
Entries after “also recorded” stand apart in the source; their conditions may differ.

How the values were obtained:
[1] = test system: advanced solid tumors or B cell lymphoma; assay: Phase 1 tumor assessments (anti-tumor activity); format: in vivo, human
Experimental: (§1) PK/PD relationship was analyzed. Tumor assessments were performed every 8 weeks.

[2] = format: in vivo; details: dose escalation up to 1600 mg BID
Experimental: Phase 1 dose escalation is being performed to determine maximum tolerated dose (MTD) safety, PK, PD, and preliminary anti-tumor activity in patients (“pts”) with B cell lymphoma or advanced solid tumors.
as §1

ABC lymphoma cell lines = assay: Combination with drugs that target the BCR/PI3K pathways in ABC lymphoma cell lines; format: cell-based
clinical = details: human, in vivo; for AUC(0-t): AUC0-12 hr
Experimental: Blood samples for PK and skin biopsies for PD analysis were collected. PD samples were stained with H3K27me3 specific antibody and percent change from baseline in H3K27Me3 positive cells was determined. PK/PD relationship was analyzed. Tumor assessments were performed every 8 weeks.
Doses administered were 100 mg BID as a suspension (n=3) or tablet (n=3) formulation and 200, 400, 800 and 1600 mg as tablet formulation.

[3] = test system: H3K27Me3 positive cells in the epidermis; assay: Skin biopsy H3K27Me3 immunohistochemistry and PK/PD model; format: in vivo, human
Experimental: as §1
Skin biopsies were collected predose (Cycle 1, Day 1) and predose prior to Cycle 2, Day 1 for immunohistochemistry analysis.
An inhibitory Emax PK/PD model was fit to describe this relationship.

SMILES: CCN(c1cc(-c2ccc(CN3CCOCC3)cc2)cc(C(=O)NCc2c(C)cc(C)[nH]c2=O)c1C)C1CCOCC1 [EPZ-6438]
- Maximum tumor change ([1]; 100 mg dose group): −78%
- Maximum tumor change ([1]; 200mg dose group): −87%
- Partial responses in evaluable NHL pts ([1]; 1 transformed DLBCL, 100mg BID, and 1 PMBL, 200mg BID): 2 of 4
- MTD [2]: has not been reached
- effect of combination with drugs that target the BCR/PI3K pathways (ABC lymphoma cell lines): no effect observed
- AUC0-12 hr (clinical; 100 mg): 337 ng·h/mL
- Tmax (clinical; 100 mg): 1.0 h
- AUC(0-t) (clinical; 100 mg): 467 ng·h/mL
- Tmax (clinical; 100 mg, Tmax): 0.5 h
- AUC(0-t) (clinical; 200 mg): 1250 ng·h/mL
- Cmax (clinical; 200 mg, Cmax): 363 ng/mL
- Tmax (clinical; 200 mg, Tmax): 1 h
- half-life (clinical; 200 mg, t1/2): 3.42 h
- AUC(0-t) (clinical; 400 mg): 1720 ng·h/mL
- Cmax (clinical; 400 mg, Cmax): 476 ng/mL
- Tmax (clinical; 400 mg, Tmax): 2 h
- half-life (clinical; 400 mg, t1/2): 2.88 h
- AUC (clinical; 800 mg): 4550 ng·h/mL
- AUC(0-t) (clinical; 800 mg): 7800 ng·h/mL
- Cmax (clinical; 800 mg, Cmax): 1730 ng/mL
- Tmax (clinical; 800 mg, Tmax): 2 h
- half-life (clinical; 800 mg, t1/2): 3.81 h
- Cmax (clinical; 1600 mg): 4125 ng/mL
- AUC(0-t) (clinical; 1600 mg): 18900 ng·h/mL
- Tmax (clinical; 1600 mg, Tmax): 2 h
- half-life (clinical; 1600 mg, t1/2): 3.67 h
- half-life (clinical; mean EPZ-6438 terminal half-life (t½)): 3 to 6 h
- Tmax (clinical; po, Tmax): 1 to 2 h
- half-life (clinical; po, half-life): ~4 h
- half-life (clinical; terminal half-life (t½)): 3 to 6 h
- maximal inhibition (Imax) of H3K27Me3 positive cells in skin ([3]; inhibitory Emax PK/PD model estimate): −44.4%
- exposure associated with 50% of maximal inhibition (IC50) ([3]; inhibitory Emax PK/PD model estimate, AUC exposure): 487 ng·h/mL
- exposure associated with 90% of maximal inhibition (IC90) ([3]; model predicted, AUC exposure): 4421 ng·h/mL
- H3K27Me3 positive cells in skin ([3]; skin biopsies, Cycle 2 Day 1 vs predose baseline): exposure-related decrease; also recorded: consistent decrease
